Laboratory results: US11427567B2, “Imidazolyl pyrimidinylamine compounds as CDK2 inhibitors” (Incyte Corporation, priority 2019, dated 2022)

Biological target: CDK2/Cyclin E1 (Homo sapiens (Human), UniProt P24941)
Assay: CDK2/Cyclin E1 HTRF enzyme activity assay (Example A)
Type: biochemical
Details: 1 mM ATP
Procedure: Assays were conducted in white 384-well polystyrene plates in a final reaction volume of 8 μL. […] HTRF signals were read after 1 hour at room temperature on a PHERAstar FS plate reader (BMG Labtech). Data was analyzed with IDBS XLFit and GraphPad Prism 5.0 software using a three or four parameter dose response curve to determine IC50 for each compound.

SMILES | IC50
CCN(CC)Cc1ccc(-n2cc(-c3nc(NC4CCN(S(C)(=O)=O)CC4)ncc3C(F)(F)F)nc2C)c(F)c1 [Example 357, 4-(1-(4-((Diethylamino)methyl)-2-fluorophenyl)-2-methyl-1H-imidazol-4-yl)-N-(1-(methylsulfonyl)piperidin-4-yl)-5-(trifluoromethyl)pyrimidin-2-amine] | ≤ 0.05 µM
CCN(C)Cc1ccc(-n2cc(-c3nc(NC4CCN(S(C)(=O)=O)CC4)ncc3C(F)(F)F)nc2C)c(F)c1 [Example 358, 4-(1-(4-((Ethyl(methyl)amino)methyl)-2-fluorophenyl)-2-methyl-1H-imidazol-4-yl)-N-(1-(methylsulfonyl)piperidin-4-yl)-5-(trifluoromethyl)pyrimidin-2-amine] | ≤ 0.05 µM
CCNCc1ccc(-n2cc(-c3nc(NC4CCN(S(C)(=O)=O)CC4)ncc3C(F)(F)F)nc2C)c(F)c1 [Example 359, 4-(1-(4-((Ethylamino)methyl)-2-fluorophenyl)-2-methyl-1H-imidazol-4-yl)-N-(1-(methylsulfonyl)piperidin-4-yl)-5-(trifluoromethyl)pyrimidin-2-amine] | ≤ 0.05 µM
CC(C)NCc1cccc(-n2cnc(-c3nc(NC4CCN(S(C)(=O)=O)CC4)ncc3C(F)(F)F)c2)c1Cl [Example 360, 4-(1-(2-Chloro-3-((isopropylamino)meth-yl)phenyl)-1H-imidazol-4-yl)-N-(1-(methylsulfonyl)piperidin-4-yl)-5-(trifluoromethyl)pyrimi-din-2-amine] | ≤ 0.05 µM
CCNCc1cccc(-n2cnc(-c3nc(NC4CCN(S(C)(=O)=O)CC4)ncc3C(F)(F)F)c2)c1Cl [Example 361, 4-(1-(2-Chloro-3-((ethylamino)methyl)phe-nyl)-1H-imidazol-4-yl)-N-(1-(methylsulfonyl)piperidin-4-yl)-5-(trifluoromethyl)pyrimi-din-2-amine] | ≤ 0.05 µM
CC1(O)CN(Cc2cccc(-n3cnc(-c4nc(NC5CCN(S(C)(=O)=O)CC5)ncc4C(F)(F)F)c3)c2Cl)C1 [Example 362, 1-(2-Chloro-3-(4-(2-((1-(methylsulfonyl)piperidin-4-yl)amino)-5-(trifluoromethyl)pyrimi-din-4-yl)-1H-imidazol-yl)benzyl)-3-methylazetidin-3-ol] | ≤ 0.05 µM
C[C@@]1(O)CCN(Cc2cccc(-n3cnc(-c4nc(NC5CCN(S(C)(=O)=O)CC5)ncc4C(F)(F)F)c3)c2Cl)C1 [Example 363, (R)-1-(2-Chloro-3-(4-(2-((1-(methylsulfonyl)piperidin-4-yl)amino)-5-(trifluoromethyl)pyrimi-din-4-yl)-1H-imidazol-1-yl)benzyl)-3-methylpyrrolidin-3-ol] | ≤ 0.05 µM
CS(=O)(=O)N1CCC(Nc2ncc(C(F)(F)F)c(-c3cn(-c4cccc(CN5CC[C@@H](O)C5)c4Cl)cn3)n2)CC1 [Example 364, (R)-1-(2-Chloro-3-(4-(2-((1-(methyslulfonyl)piperidin-4-yl)amino)-5-(trifluoromethyl)pyrimi-din-4-yl)-1H-imidazol-1-yl)benzyl)pyrrolidin-3-ol] | ≤ 0.05 µM
CS(=O)(=O)N1CCC(Nc2ncc(C(F)(F)F)c(-c3cn(-c4cccc(CN5CC[C@H](O)C5)c4Cl)cn3)n2)CC1 [Example 365, (S)-1-(2-Chloro-3-(4-(2-((1-(methylsulfonyl)piperidin-4-yl)amino)-5-(trifluoromethyl)pyrimi-din-4-yl)-1H-imidazol-1-yl)benzyl)pyrrolidin-3-ol] | ≤ 0.05 µM
CS(=O)(=O)N1CCC(Nc2ncc(C(F)(F)F)c(-c3cn(-c4cccc(CN5CCC5)c4Cl)cn3)n2)CC1 [Example 366, 4-(1-(3-(Azetidin-1-ylmethyl)-2-chlorophenyl)-1H-imidazol-4-yl)-N-(1-(methylsulfonyl)piperidin-4-yl)-5-(trifluoromethyl)pyrimi-din-2-amine] | ≤ 0.05 µM
CS(=O)(=O)N1CCC(Nc2ncc(C(F)(F)F)c(-c3cn(-c4cccc(CNC5CCOC5)c4Cl)cn3)n2)CC1 (centres unmarked) [Example 367, 4-(1-(2-Chloro-3-(((tetrahydrofuran-3-yl)amino)methyl)phenyl)-1H-imidazol-4-yl)-N-(1-(methylsulfonyl)piperidin-4-yl)-5-(trifluoromethyl)pyrimi-din-2-amine] | ≤ 0.05 µM
CS(=O)(=O)N1CCC(Nc2ncc(C(F)(F)F)c(-c3cn(-c4cccc(CNC5CCOCC5)c4Cl)cn3)n2)CC1 [Example 368, 4-(1-(2-Chloro-3-(((tetrahydro-2H-pyran-4-yl)amino)methyl)phenyl)-1H-imidazol-4-yl)-N-(1-(methylsulfonyl)piperidin-4-yl)-5-(trifluoromethyl)pyrimi-din-2-amine] | ≤ 0.05 µM
CS(=O)(=O)N1CCC(Nc2ncc(C(F)(F)F)c(-c3cn(-c4cccc(CCN5CCOCC5)c4Cl)cn3)n2)CC1 [Example 369, 4-(1-(2-Chloro-3-(2-morpholinoethyl)phenyl)-1H-imidazol-4-yl)-N-(1-(methylsulfonyl)piperidin-4-yl)-5-(trifluoromethyl)pyrimidin-2-amine] | ≤ 0.05 µM
CN(C)CCc1cccc(-n2cnc(-c3nc(NC4CCN(S(C)(=O)=O)CC4)ncc3C(F)(F)F)c2)c1Cl [Example 370, 4-(1-(2-Chloro-3-(2-(dimethylamino)ethyl)phe-nyl)-1H-imidazol-4-yl)-N-(1-(methylsulfonyl)piperidin-4-yl)-5-(trifluoromethyl)pyrimi-din-2-amine] | ≤ 0.05 µM
CS(=O)(=O)N1CCC(Nc2ncc(C(F)(F)F)c(-c3cn(-c4cccc(CCNC5CC5)c4Cl)cn3)n2)CC1 [Example 371, 4-(1-(2-Chloro-3-(2-(cyclopropylamino)eth-yl)phenyl)-1H-imidazol-4-yl)-N-(1-(methylsulfonyl)piperidin-4-yl)-5-(trifluoromethyl)pyrimi-din-2-amine] | ≤ 0.05 µM
CC1(O)CN(CCc2cccc(-n3cnc(-c4nc(NC5CCN(S(C)(=O)=O)CC5)ncc4C(F)(F)F)c3)c2Cl)C1 [Example 372, 1-(2-Chloro-3-(4-(2-((1-(methylsulfonyl)piperidin-4-yl)amino)-5-(trifluoromethyl)pyrimi-din-4-yl)-1H-imidazol-1-yl)phenethyl)-3-methylazetidin-3-ol] | ≤ 0.05 µM
CS(=O)(=O)N1CCC(Nc2ncc(C(F)(F)F)c(-c3cn(-c4cccc(CCN5CCC5)c4Cl)cn3)n2)CC1 [Example 373, 4-(1-(3-(2-(Azetidin-1-yl)ethyl)-2-chlorophenyl)-1H-imidazol-4-yl)-N-(1-(methylsulfonyl)piperidin-4-yl)-5-(trifluoromethyl)pyrimi-din-2-amine] | ≤ 0.05 µM
C[C@@]1(O)CCN(CCc2cccc(-n3cnc(-c4nc(NC5CCN(S(C)(=O)=O)CC5)ncc4C(F)(F)F)c3)c2Cl)C1 [Example 374, (R)-1-(2-Chloro-3-(4-(2-((1-(methylsulfonyl)piperidin-4-yl)amino)-5-(trifluoromethyl)pyrimi-din-4-yl)-1H-imidazol-1-yl)phenethyl)-3-methylpyrrolidin-3-ol] | ≤ 0.05 µM
CCNC(C)c1cccc(-n2cnc(-c3nc(NC4CCN(S(C)(=O)=O)CC4)ncc3C(F)(F)F)c2)c1Cl (centres unmarked) [Example 375, 4-(1-(2-Chloro-3-(1-(ethylamino)ethyl)phenyl)-1H-imidazol-4-yl)-N-(1-(methylsulfonyl)piperidin-4-yl)-5-(trifluoromethyl)pyrimidin-2-amine] | ≤ 0.05 µM
CC(c1cccc(-n2cnc(-c3nc(NC4CCN(S(C)(=O)=O)CC4)ncc3C(F)(F)F)c2)c1Cl)N(C)C (centres unmarked) [Example 376, 4-(1-(2-Chloro-3-(1-(dimethylamino)ethyl)phe-nyl)-1H-imidazol-4-yl)-N-(1-(methylsulfonyl)piperidin-4-yl)-5-(trifluoromethyl)pyrimi-din-2-amine] | ≤ 0.05 µM
CNC(C)c1cccc(-n2cnc(-c3nc(NC4CCN(S(C)(=O)=O)CC4)ncc3C(F)(F)F)c2)c1Cl (centres unmarked) [Example 377, 4-(1-(2-Chloro-3-(1-(methylamino)ethyl)phe-nyl)-1H-imidazol-4-yl)-N-(1-(methylsulfonyl)piperidin-4-yl)-5-(trifluoromethyl)pyrimi-din-2-amine] | ≤ 0.05 µM
CNCc1cccc(-n2cnc(-c3nc(NC4CCN(S(C)(=O)=O)CC4)ncc3C(F)(F)F)c2)c1C(F)(F)F [Example 378, 4-(1-(3-((Methylamino)methyl)-2-(trifluoromethyl)phenyl)-1H-imidazol-4-yl)-N-(1-(methylsulfonyl)piperidin-4-yl)-5-(trifluoromethyl)pyrimidin-2-amine] | ≤ 0.05 µM
CC1(O)CN(Cc2cccc(-n3cnc(-c4nc(NC5CCN(S(C)(=O)=O)CC5)ncc4C(F)(F)F)c3)c2C(F)(F)F)C1 [Example 379, 3-Methyl-1-(3-(4-(2-((1-(methylsulfonyl)piperidin-4-yl)amino)-5-(trifluoromethyl)pyrimi-din-4-yl)-1H-imidazol-1-yl)-2-(trifluoromethyl)benzyl) azetidin-3-ol] | ≤ 0.05 µM
CS(=O)(=O)N1CCC(Nc2ncc(C(F)(F)F)c(-c3cn(-c4cccc(CN5CCC5)c4C(F)(F)F)cn3)n2)CC1 [Example 380, 4-(1-(3-(Azetidin-1-ylmethyl)-2-(trifluoromethyl)phenyl)-1H-imidazol-4-yl)-N-(1-(methylsulfonyl)piperidin-4-yl)-5-(trifluoromethyl)pyrimi-din-2-amine] | ≤ 0.05 µM
C[C@@]1(O)CCN(Cc2cccc(-n3cnc(-c4nc(NC5CCN(S(C)(=O)=O)CC5)ncc4C(F)(F)F)c3)c2C(F)(F)F)C1 [Example 381, (R)-3-Methyl-1-(3-(4-(2-((1-(methylsulfonyl)piperidin-4-yl)amino)-5-(trifluoromethyl)pyrimi-din-4-yl)-1H-imidazol-1-yl)-2-(trifluoromethyl)benzyl) pyrrolidin-3-ol] | ≤ 0.05 µM
Cc1nc(CN2CCCCC2)ccc1-n1cnc(-c2nc(NC3CCN(S(C)(=O)=O)CC3)ncc2C(F)(F)F)c1 [Example 382, 4-(1-(2-Methyl-6-(piperidin-1-ylmethyl)pyridin-3-yl)-1H-imidazol-4-yl)-N-(1-(methylsulfonyl)piperidin-4-yl)-5-(trifluoromethyl)pyrimidin-2-amine] | ≤ 0.05 µM
